IC50 and GI50 data for 11 compounds are collected here from patent US10065990B2, “Cyclic peptide compound, and preparation method, pharmaceutical composition and use thereof” (HANGZHOU GUANYU BIO-MEDICAL CO., LTD, priority 2013, dated 2018).

The target of one test is HDAC3 (Homo sapiens, UniProt O15379). The test is described as follows: HDAC biochemical activity measurement (fluorescent substrate deacetylation).
Another test addresses T1, HDAC8 (Homo sapiens, UniProt Q9BY41).
T1 sequence (Q9BY41 1-377): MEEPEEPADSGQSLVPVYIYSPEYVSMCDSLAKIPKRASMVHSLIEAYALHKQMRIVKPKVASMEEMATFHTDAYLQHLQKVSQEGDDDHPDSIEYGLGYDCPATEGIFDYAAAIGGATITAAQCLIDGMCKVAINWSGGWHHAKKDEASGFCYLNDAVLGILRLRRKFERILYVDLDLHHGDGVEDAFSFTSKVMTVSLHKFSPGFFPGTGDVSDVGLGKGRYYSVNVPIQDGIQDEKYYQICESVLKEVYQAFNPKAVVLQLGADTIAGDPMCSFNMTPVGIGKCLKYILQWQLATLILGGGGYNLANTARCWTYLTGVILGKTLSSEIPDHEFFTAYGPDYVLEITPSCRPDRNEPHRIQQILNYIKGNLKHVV
The test is described as above. The conditions noted are these: 37° C. 30 minutes.

The target in another test is HDAC2 (Homo sapiens, UniProt Q92769). The description is as above. Conditions: 37° C. 30 minutes.
The subject of test [1] is U937 (human leukemia cells). The test is described as follows: MTT cancer cell growth inhibition. Type of test: cell-based. The conditions noted are these: Homo sapiens, U-937, 72 h, MTT, 72 hours incubation, read-out: GI50 U93. In a few lines:
(§1)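 GI50 values come from MTT viability: after 72 h compound exposure (final 10^−5–10^−10 M, three wells each) of cells plated overnight at 1500/well in 10% FBS medium, MTT was given for 4 h. The DMSO-solubilised formazan was then measured at 570 nm.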

Test [2] has as its system Huh-7 (human hepatoma cells). The test can be described thus: MTT cancer cell growth inhibition. Type of test: cell-based. The conditions noted are these: Homo sapiens, Huh-7, 72 h, MTT, 72 hours incubation, Huh-7 cells; read-out: GI50 Huh-7. Summed up:
as §1

Test [3] has as its system MCF-7 (human breast cancer cells). The test is described as follows: MTT cancer cell growth inhibition. The class given is cell-based. Conditions: Homo sapiens, MCF7, 72 h, 72 hours incubation, read-out: GI50 MCF. In a few lines: as §1
The subject of test [4] is HT1080 (human fibrosarcoma cells). The test is described as follows: MTT cancer cell growth inhibition. The conditions noted are these: Homo sapiens, HT-1080, 72 h, MTT, 72 hours incubation, read-out: GI50 HT1. The class given is cell-based. In a few lines: as §1
Test [5] deals with KBM5-T315I (human chronic myelogenous leukemia). The test is described as follows: MTT cancer cell growth inhibition. Type of test: cell-based. Conditions: Homo sapiens, 72 h, MTT, 72 hours incubation, KBM5-T315I cells; read-out: GI50 KBM5-T315I. In a few lines:
as §1

Test [6] has as its system DU145 (human prostate cancer cells). The test is described as follows: MTT cancer cell growth inhibition. Type of test: cell-based. Conditions: Homo sapiens, DU-145, 72 h, MTT, 72 hours incubation, read-out: GI50 Du1. Summed up:
as §1

Test [7] concerns KBM-5 (human chronic myelogenous leukemia). The test can be described thus: MTT cancer cell growth inhibition. Type of test: cell-based. Conditions: Homo sapiens, KBM5, 72 h, MTT, 72 hours incubation, KBM-5 cells; read-out: GI50 KBM-5. In a few lines: as §1
In test [8] the test system is MOLT-4 (human acute lymphoblastic leukemia cells). The test is described as follows: MTT cancer cell growth inhibition. The conditions noted are these: Homo sapiens, MOLT-4, 72 h, MTT, 72 hours incubation, read-out: GI50 Mol. The class given is cell-based. In a few lines:
as §1

Test [9] deals with lncap (prostate cancer cells). The test can be described thus: MTT cancer cell growth inhibition. Type of test: cell-based. Conditions: Homo sapiens, LNCaP, 72 h, MTT, 72 hours incubation, read-out: GI50 lnca. In a few lines:
as §1

A further test concerns the target HDAC1 (Homo sapiens, UniProt Q13547). The test can be described thus: HDAC biochemical activity measurement (fluorescent substrate deacetylation).
The mark [10] stands for this setting: read-out: IC50 HDAC3, HDAC3, 37° C. 30 minutes.
Setting [11] is: HDAC1, 37° C. 30 minutes, read-out: IC50 HDAC1.
[12] abbreviates: Table 3, column C, read-out: IC50 HDAC1, C (six-membered ring with substituents).
Where [13] appears, read: Table 3, read-out: IC50 HDAC1, D (non-substituent).

Broadly, the IC50 is the concentration needed to halve the response being measured. One may read the GI50 as the concentration that inhibits growth by half.

The structures appear in SMILES notation. Where two headings read alike, the source gives them in different places.
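Throughout, for IC50 HDAC1, C (six-membered ring with substituents): fluorogenic acetyl-lysine substrate (20 µM) deacetylated by HDAC1, then developer releases fluorophore read at 360 nm excitation and 460 nm emission, inhibitor incubated 30 min at 37 °C.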
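Throughout, for IC50 HDAC1, D (non-substituent): fluorogenic acetyl-lysine substrate (20 µM) deacetylated by HDAC1, then developer releases fluorophore read at 360 nm excitation and 460 nm emission, inhibitor incubated 30 min at 37 °C.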
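Throughout, for IC50 HDAC1: fluorogenic acetyl-lysine substrate (20 µM) deacetylated by HDAC1, then developer releases fluorophore read at 360 nm excitation and 460 nm emission, inhibitor incubated 30 min at 37 °C.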

Sequence of HDAC1 (Q13547 whole entry, species assumed): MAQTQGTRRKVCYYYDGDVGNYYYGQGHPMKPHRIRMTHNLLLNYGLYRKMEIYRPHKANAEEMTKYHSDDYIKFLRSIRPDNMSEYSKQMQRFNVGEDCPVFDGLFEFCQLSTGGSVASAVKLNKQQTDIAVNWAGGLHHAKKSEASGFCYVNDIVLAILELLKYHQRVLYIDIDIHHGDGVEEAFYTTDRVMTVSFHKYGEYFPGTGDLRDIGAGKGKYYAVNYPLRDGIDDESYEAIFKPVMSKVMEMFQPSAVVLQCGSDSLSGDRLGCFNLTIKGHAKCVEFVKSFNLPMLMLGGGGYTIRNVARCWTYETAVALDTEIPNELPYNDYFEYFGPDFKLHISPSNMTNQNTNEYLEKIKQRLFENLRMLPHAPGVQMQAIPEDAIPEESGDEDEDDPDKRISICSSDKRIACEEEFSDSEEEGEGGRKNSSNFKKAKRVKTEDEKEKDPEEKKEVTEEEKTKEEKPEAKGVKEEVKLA
Sequence of HDAC3 (O15379 whole entry, species assumed): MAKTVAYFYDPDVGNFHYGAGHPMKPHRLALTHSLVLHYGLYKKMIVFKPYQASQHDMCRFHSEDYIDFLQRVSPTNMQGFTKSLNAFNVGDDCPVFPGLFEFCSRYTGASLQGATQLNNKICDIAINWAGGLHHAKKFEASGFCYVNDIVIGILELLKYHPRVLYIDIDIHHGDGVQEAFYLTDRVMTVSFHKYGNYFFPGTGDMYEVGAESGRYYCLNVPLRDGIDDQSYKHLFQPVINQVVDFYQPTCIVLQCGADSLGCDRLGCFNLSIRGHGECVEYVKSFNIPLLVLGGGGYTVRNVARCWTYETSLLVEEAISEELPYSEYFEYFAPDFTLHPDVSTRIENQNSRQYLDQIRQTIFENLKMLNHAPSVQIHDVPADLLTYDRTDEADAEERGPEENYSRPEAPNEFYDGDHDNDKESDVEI
Sequence of HDAC3 (Q9Y618 395-489 partner limits assumed, species assumed): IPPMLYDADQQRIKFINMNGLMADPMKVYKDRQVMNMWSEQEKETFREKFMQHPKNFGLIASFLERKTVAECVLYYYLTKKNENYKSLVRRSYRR
Sequence of HDAC2 (Q92769 whole entry, species assumed): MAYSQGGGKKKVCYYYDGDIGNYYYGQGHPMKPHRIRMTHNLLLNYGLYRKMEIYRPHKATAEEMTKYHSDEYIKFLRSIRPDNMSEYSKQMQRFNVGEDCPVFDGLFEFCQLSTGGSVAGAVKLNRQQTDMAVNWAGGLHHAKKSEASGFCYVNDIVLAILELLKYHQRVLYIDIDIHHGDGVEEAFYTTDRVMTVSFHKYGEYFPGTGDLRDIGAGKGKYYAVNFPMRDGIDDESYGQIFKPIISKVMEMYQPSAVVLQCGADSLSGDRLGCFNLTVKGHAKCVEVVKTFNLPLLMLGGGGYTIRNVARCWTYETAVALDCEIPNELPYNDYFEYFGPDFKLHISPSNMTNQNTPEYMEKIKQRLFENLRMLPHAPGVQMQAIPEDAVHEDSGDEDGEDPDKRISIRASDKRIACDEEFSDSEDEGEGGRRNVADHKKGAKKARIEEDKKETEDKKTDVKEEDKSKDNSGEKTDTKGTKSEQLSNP
Description for HDAC1: (§2) The chemical activity of the compound is determined according to the degree of deacetylation inhibition of the HDAC enzyme. This experiment measured the degree of deacetylation related to tumor proliferation and metastasis of HDAC1, HDAC2, HDAC3, HDAC8, HDAC11 five subtypes HDAC enzymes. After the substrate containing an acetylated lysine side chain and HDAC enzyme are labeled with a fluorescent label, the fluorescent substrate is de acetyl. The fluorescent labeled substrate is cleaved by the enzyme, and the fluorescent substance is released, which generates 460 nm emission light under the excitation of 360 nm light.
(§3) HDAC substrate was diluted with reaction buffer to 200M (reaction concentration of 20M), the HDAC enzyme was diluted to the appropriate concentration, then added different concentrations of the test compounds and acted at 37° C. 30 minutes, and then added the same volume of 2-times concentration substrate developing solution (developer), incubated at room temperature for 15 minutes.
Description for HDAC8: as §2, §3

On to `C/C=C1\NC(=O)c2cc(C)cc(n2)CNC(=O)C[C@@H](/C=C/CCSC(C)=O)OC(=O)[C@H](Cc2ccccc2)NC1=O` [Example 67], for which the IC50 on HDAC3 came out at 28 nM; at HDAC8, 16 nM; on HDAC2 it was 34 nM. Besides, the GI50 in test [1] was found to be 30 nM; in test [2], 33 nM; in test [3] it was 20 nM; in test [4], 80 nM; in test [5] it was 26 nM; in test [6], 30 nM. For the same compound, the values for the GI50 in test [7], in test [8] and in test [9] were 46 nM, 30 nM and 30 nM, respectively.

As to `C/C=C1\NC(=O)c2nc(ccc2F)CNC(=O)C[C@@H](/C=C/CCSC(C)=O)OC(=O)[C@H](Cc2ccc(O)cc2)NC1=O` [Compound 81], the IC50 came out at 16 nM on HDAC3 (setting [10]); 26 nM on HDAC8; 37 nM at HDAC1 (setting [11]); 37 nM on HDAC1 (setting [12]); 31 nM against HDAC2. The GI50 in [1] was determined as 40 nM; in test [2], 34 nM; in [3], 30 nM; in test [4], 50 nM; in test [5], 34 nM; in test [6] it was 20 nM. In addition, the GI50 in test [7] turned out to be 38 nM; in test [8], 30 nM; in [9], 30 nM.

As for `C/C=C1\NC(=O)c2cccc(n2)CNC(=O)C[C@@H](/C=C/CCSC(=O)CCCCC)OC(=O)[C@H](C(C)C)NC1=O` [Compound 3], the IC50 on HDAC3 was 145 nM; against HDAC8 it was 169 nM; at HDAC1 (setting [11]), 171 nM; at HDAC1 (setting [13]), 171 nM; against HDAC2, 158 nM. Also, the GI50 in test [2] worked out at 43 nM; in test [3], 30 nM; in test [4], 60 nM; in [5], 34 nM; in test [7], 73 nM.

`C/C=C1\NC(=O)c2ccc(F)c(n2)CNC(=O)C[C@@H](/C=C/CCSC(C)=O)OC(=O)[C@H](CCCCNC(=O)OCC2c3ccccc3-c3ccccc32)NC1=O` [Example 77]: the IC50 on HDAC3 turned out to be 26 nM; on HDAC8, 37 nM; on HDAC1 (setting [11]) it was 94 nM; on HDAC2, 29 nM. In addition, the GI50 in test [1] came out at 30 nM; in test [2], 25 nM; in test [3] it was 30 nM; in test [4], 80 nM; in [5] it was 37 nM; in test [6] it was 40 nM. The GI50 in test [7] came to 52 nM; in [8], 20 nM; in [9], 20 nM.

With `C/C=C1\NC(=O)c2ccc(SC)c(n2)CNC(=O)C[C@@H](/C=C/CCSC(=O)CCCCCCC)OC(=O)[C@H](CC)NC1=O` [Compound 173], the IC50 at HDAC3 is 37 nM; against HDAC8, 39 nM; against HDAC2, 31 nM. The GI50 was 10 nM in [1] (U937 cells); 71 nM in test [2]; 20 nM in test [3] (MCF-7 cells); 70 nM in test [4] (HT1080 cells); 12 nM in test [5]; 60 nM in test [6] (DU145 cells). The GI50 in test [7] amounted to 13 nM; in test [8] (MOLT-4 cells) it was 30 nM; in test [9] (lncap cells) it was 40 nM.

Take `C/C=C1\NC(=O)c2cccc(n2)CNC(=O)C[C@@H](/C=C/CCSC(=O)CCCCCC)OC(=O)[C@H](C(C)C)NC1=O` [Compound 2]: the IC50 is 177 nM on HDAC3 (setting [10]); 252 nM against HDAC8; 192 nM at HDAC1 (setting [11]); 192 nM at HDAC1 (setting [13]); 163 nM on HDAC2. Besides, the GI50 was 73 nM in test [2]; 30 nM in test [3]; 50 nM in [4]; 29 nM in test [5]; 51 nM in test [7].

`CC(=O)SCC/C=C/[C@@H]1CC(=O)NCc2cc(F)cc(n2)C(=O)NC(=C(C)C)C(=O)N[C@@H](C(C)C)C(=O)O1` [Compound 88]: the IC50 was 41 nM on HDAC3 (setting [10]); 43 nM on HDAC8; 31 nM on HDAC1 (setting [11]); 31 nM at HDAC1 (setting [12]); 35 nM against HDAC2. For the same compound, the GI50 is 50 nM in test [1]; 38 nM in test [2]; 20 nM in test [3]; 60 nM in test [4]; 24 nM in [5]; 30 nM in [6]. For the same compound, the GI50 in test [7] worked out at 71 nM; in [8], 30 nM; in [9], 30 nM.

`C=C1NC(=O)c2nc(ccc2F)CNC(=O)C[C@@H](/C=C/CCSC(C)=O)OC(=O)[C@H](C(C)C)NC1=O` [Compound 84]: the IC50 on HDAC3 (setting [10]) came to 29 nM; against HDAC8 it was 29 nM; at HDAC1 (setting [11]), 42 nM; at HDAC1 (setting [12]), 42 nM; against HDAC2, 43 nM. Further, the GI50 in [1] is 50 nM; in [2], 28 nM; in test [3] it was 20 nM; in test [4] it was 70 nM; in [5], 26 nM; in [6], 30 nM. For the same compound, the GI50 came to 51 nM in test [7], 20 nM in test [8] and 20 nM in [9].

With `C/C=C1\NC(=O)c2nc(ccc2F)CNC(=O)C[C@@H](/C=C/CCSC(C)=O)OC(=O)[C@H](Cc2cccc3ccccc23)NC1=O` [Compound 78], the IC50 is 38 nM at HDAC3 (setting [10]); 39 nM against HDAC8; 63 nM on HDAC1 (setting [11]); 63 nM on HDAC1 (setting [12]); 37 nM against HDAC2. Also, the 50% growth inhibitory concentration (GI50) in test [1] worked out at 60 nM; in test [2] it was 29 nM; in test [3], 10 nM; in test [4], 70 nM; in test [5], 19 nM; in [6], 40 nM. Besides, the GI50 in test [7] was 61 nM; in test [8], 20 nM; in test [9], 20 nM.

Regarding `C/C=C1\NC(=O)c2cc(F)cc(n2)CNC(=O)C[C@@H](/C=C/CCSC(C)=O)OC(=O)[C@H](Cc2ccc(O)cc2)NC1=O` [Example 82], the IC50 against HDAC3 was determined as 53 nM; at HDAC8, 34 nM; on HDAC1 (setting [11]), 94 nM; on HDAC2 it was 49 nM. Moreover, the GI50 was 50 nM in test [1]; 29 nM in test [2]; 30 nM in test [3]; 80 nM in test [4]; 38 nM in [5]; 30 nM in test [6]. The GI50 in test [7] was 49 nM; in test [8], 20 nM; in test [9], 20 nM.

Take `C/C=C1\NC(=O)c2cc(F)cc(n2)CNC(=O)C[C@@H](/C=C/CCSC(C)=O)OC(=O)[C@H](Cc2cccc3ccccc23)NC1=O` [Example 79]: the IC50 against HDAC3 was found to be 27 nM; against HDAC8 it was 42 nM; on HDAC1 (setting [11]), 57 nM; against HDAC2 it was 19 nM. Moreover, the GI50 in test [1] turned out to be 60 nM; in test [2], 31 nM; in test [3] it was 20 nM; in test [4], 90 nM; in [5], 28 nM; in test [6], 20 nM. In addition, the GI50 in test [7] is 76 nM; in test [8], 30 nM; in test [9], 30 nM.
